Key:
[1] = tested on: PC-3; test: Antiproliferative activity against human PC3 prostate carcinoma cells by MTS assay; type: functional
[2] = tested on: L1210; test: Antiproliferative activity against mouse L1210 leukemia cell line by MTS assay; type: functional
[3] = tested on: 2008; test: Antiproliferative activity against human 2008 ovarian carcinoma cells by MTS assay; type: functional
[4] = tested on: HT-29; test: Antiproliferative activity against human HT29 colon carcinoma cells by MTS assay; type: functional
[5] = tested on: MDA-MB-231; test: Antiproliferative activity against human MDA-MB-231 breast carcinoma cells by MTS assay; type: functional
[6] = target: Cytoplasmic dynein 1 heavy chain 1 (Rattus norvegicus, UniProt P38650); test: Inhibition of MT-stimulated ATPase activity of rat cytoplasmic dynein heavy chain motor domain
Cytoplasmic dynein 1 heavy chain 1, sequence (P38650 whole entry, the tested form may be a part): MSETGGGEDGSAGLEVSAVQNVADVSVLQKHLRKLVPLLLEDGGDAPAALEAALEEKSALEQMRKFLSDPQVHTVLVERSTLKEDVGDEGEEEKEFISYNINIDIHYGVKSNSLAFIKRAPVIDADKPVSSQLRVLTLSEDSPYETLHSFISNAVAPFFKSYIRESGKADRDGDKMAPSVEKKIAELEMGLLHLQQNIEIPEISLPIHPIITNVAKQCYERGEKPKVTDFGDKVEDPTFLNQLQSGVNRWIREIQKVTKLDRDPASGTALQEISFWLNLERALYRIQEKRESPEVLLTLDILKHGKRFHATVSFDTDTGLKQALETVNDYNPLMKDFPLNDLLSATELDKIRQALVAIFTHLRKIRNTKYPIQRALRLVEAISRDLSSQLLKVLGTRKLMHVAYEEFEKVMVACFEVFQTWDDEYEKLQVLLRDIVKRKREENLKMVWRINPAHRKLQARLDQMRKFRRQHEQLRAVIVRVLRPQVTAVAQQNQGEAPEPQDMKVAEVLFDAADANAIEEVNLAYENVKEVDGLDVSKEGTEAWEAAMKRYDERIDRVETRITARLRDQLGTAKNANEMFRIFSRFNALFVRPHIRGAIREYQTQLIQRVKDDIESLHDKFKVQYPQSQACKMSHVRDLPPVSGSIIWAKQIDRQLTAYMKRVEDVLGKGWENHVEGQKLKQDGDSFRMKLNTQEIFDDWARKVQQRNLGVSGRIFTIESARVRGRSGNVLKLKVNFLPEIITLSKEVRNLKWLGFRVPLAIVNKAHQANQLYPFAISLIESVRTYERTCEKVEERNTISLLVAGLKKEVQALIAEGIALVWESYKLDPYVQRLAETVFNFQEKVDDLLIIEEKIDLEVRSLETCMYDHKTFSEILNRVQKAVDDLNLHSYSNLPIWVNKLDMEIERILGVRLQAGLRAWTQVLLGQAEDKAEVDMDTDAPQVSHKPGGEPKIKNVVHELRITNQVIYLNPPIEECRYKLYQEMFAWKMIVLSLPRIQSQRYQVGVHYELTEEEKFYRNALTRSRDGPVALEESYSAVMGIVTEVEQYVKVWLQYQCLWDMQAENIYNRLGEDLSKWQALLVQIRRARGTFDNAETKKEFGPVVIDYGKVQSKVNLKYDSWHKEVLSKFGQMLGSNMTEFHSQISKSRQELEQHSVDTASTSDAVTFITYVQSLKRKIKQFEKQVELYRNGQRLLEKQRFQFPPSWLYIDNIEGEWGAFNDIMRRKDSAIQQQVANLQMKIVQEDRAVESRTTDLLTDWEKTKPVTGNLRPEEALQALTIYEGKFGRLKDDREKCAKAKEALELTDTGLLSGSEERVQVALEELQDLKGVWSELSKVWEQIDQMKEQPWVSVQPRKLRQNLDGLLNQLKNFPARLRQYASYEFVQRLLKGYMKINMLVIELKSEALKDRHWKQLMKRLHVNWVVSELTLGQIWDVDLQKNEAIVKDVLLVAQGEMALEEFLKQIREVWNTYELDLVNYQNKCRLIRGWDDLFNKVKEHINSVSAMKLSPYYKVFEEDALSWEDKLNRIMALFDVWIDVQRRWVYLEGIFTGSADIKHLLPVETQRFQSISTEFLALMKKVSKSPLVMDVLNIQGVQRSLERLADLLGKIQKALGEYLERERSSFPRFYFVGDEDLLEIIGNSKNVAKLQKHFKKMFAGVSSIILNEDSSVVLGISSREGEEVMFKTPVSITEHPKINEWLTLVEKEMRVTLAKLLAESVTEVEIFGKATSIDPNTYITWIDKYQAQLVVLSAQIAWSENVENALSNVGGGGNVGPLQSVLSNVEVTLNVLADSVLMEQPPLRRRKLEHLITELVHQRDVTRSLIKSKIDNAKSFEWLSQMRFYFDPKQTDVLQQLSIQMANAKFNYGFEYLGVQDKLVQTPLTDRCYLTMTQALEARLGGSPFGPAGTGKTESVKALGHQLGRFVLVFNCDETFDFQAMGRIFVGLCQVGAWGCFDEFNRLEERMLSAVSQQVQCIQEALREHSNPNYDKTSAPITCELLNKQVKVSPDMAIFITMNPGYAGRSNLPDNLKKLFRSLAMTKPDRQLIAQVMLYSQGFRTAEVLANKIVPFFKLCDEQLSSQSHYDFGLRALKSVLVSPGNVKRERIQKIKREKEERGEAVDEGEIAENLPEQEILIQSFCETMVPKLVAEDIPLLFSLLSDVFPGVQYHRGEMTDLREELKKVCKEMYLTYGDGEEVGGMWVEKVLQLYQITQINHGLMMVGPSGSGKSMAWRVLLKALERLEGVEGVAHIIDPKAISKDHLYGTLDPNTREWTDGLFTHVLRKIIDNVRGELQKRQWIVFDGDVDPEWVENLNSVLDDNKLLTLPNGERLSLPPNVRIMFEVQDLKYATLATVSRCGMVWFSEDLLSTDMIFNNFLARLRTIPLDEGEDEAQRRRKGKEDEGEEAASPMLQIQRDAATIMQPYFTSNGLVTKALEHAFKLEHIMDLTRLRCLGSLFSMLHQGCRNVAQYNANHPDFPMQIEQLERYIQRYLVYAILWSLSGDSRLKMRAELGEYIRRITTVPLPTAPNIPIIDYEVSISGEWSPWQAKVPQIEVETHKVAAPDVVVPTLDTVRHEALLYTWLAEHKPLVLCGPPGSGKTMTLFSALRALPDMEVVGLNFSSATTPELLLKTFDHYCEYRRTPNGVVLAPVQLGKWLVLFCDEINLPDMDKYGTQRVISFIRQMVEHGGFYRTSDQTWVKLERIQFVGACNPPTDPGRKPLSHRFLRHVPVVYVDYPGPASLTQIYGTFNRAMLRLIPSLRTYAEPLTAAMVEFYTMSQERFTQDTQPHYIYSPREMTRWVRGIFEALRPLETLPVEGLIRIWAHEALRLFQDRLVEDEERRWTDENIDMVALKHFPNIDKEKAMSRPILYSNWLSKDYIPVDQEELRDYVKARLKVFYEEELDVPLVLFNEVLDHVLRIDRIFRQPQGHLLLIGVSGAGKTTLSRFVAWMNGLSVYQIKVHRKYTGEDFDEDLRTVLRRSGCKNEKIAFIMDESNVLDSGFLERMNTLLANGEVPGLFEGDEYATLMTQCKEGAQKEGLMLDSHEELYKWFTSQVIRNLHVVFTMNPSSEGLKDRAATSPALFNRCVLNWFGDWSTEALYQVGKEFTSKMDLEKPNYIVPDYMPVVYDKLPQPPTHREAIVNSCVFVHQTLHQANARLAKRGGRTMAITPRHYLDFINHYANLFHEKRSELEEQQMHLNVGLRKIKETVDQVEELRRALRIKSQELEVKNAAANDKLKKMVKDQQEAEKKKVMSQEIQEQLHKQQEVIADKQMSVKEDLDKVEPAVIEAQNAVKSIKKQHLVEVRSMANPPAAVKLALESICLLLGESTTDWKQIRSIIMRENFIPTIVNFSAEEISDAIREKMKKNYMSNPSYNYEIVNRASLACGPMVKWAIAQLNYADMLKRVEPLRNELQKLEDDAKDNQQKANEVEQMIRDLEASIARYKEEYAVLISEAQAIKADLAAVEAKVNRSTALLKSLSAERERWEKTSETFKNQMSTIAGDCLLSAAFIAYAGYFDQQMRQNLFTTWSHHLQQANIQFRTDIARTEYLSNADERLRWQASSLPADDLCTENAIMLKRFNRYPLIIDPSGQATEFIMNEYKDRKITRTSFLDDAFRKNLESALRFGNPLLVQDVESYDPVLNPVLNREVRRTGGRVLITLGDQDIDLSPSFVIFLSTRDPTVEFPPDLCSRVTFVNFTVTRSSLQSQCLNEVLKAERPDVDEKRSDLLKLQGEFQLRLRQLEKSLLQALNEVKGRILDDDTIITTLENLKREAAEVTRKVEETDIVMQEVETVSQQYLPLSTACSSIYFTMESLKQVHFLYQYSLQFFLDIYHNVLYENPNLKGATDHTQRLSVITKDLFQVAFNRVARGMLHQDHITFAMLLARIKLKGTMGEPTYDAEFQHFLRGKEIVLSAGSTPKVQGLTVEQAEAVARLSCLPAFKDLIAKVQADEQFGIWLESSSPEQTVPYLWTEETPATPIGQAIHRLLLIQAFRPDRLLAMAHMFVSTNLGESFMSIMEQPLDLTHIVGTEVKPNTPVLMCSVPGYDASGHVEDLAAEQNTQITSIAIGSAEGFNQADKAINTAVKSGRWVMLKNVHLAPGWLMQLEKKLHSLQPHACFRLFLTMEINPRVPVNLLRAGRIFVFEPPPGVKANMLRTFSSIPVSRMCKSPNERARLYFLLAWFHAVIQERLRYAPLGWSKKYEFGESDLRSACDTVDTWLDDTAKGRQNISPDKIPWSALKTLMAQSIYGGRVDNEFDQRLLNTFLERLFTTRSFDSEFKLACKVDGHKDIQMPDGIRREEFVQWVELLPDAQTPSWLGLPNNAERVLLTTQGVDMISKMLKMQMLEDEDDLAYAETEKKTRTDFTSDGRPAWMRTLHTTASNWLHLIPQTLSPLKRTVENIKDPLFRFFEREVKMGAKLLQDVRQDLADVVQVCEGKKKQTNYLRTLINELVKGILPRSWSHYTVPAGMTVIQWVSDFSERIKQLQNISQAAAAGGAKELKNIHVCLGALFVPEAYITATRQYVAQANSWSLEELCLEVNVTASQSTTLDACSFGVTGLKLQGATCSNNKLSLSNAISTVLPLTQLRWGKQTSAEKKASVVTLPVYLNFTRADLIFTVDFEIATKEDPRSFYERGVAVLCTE

In the case of COc1ccc(CCNC(=O)/C(Cc2ccc(OCCCN)c(Br)c2)=N\O)cc1, the GI50 [1] is reported as 39 µM, the GI50 [2] is reported as 9.9 µM and the GI50 [3] is reported as 31 µM. The GI50 [4] was 30 µM and the GI50 [5] was 48 µM.

Work on COc1ccc(CCNC(=O)/C(Cc2cc(Br)cc(Br)c2OCCCN)=N\O)cc1 yielded a GI50 [1] of 35 µM, a GI50 [2] of 6.2 µM and a GI50 [3] of 25 µM. The GI50 [4] was 4.9 µM and the GI50 [5] was 8.8 µM.

NCCCOc1c(Cl)cc(Cl)cc1C/C(=N/O)C(=O)NCCc1c[nH]c2ccccc12 gave a GI50 [1] of 5 µM, a GI50 [2] of 5.8 µM and an IC50 [6] of over 50 µM. The GI50 [3] was 5.7 µM, the GI50 [4] was 6 µM and the GI50 [5] was 5.3 µM.

NCCCOc1c(Cl)cc(Cl)cc1C/C(=N/O)C(=O)NCCc1ccccc1 was tested, and the GI50 [1] was 31 µM, the GI50 [2] was 7.5 µM and the GI50 [3] was 8.8 µM. For the same compound, the GI50 [4] was 5.6 µM and the GI50 [5] was 7.6 µM.

NCCCOc1ccc(C/C(=N/O)C(=O)NCCc2ccc(Cl)cc2)cc1Br was tested, and the GI50 [1] was 33 µM, the GI50 [2] was 6.5 µM and the IC50 [6] was over 50 µM. The GI50 [3] was 27 µM, the GI50 [4] was 27 µM and the GI50 [5] was 26 µM.

In the case of NCCCOc1c(Br)cc(Br)cc1C/C(=N/O)C(=O)NCCc1ccc(Cl)cc1, the GI50 [1] is reported as 15 µM, the GI50 [2] is reported as 6.3 µM and the IC50 [6] is reported as over 50 µM. It also gave a GI50 [3] of 5.6 µM, a GI50 [4] of 5.3 µM and a GI50 [5] of 5.6 µM.

Work on COc1ccc(CCNC(=O)/C(Cc2cc(Cl)cc(Cl)c2OCCCN)=N\O)cc1 yielded a GI50 [1] of 32 µM, a GI50 [2] of 6.9 µM and a GI50 [3] of 29 µM. The GI50 [4] was 6.2 µM and the GI50 [5] was 24 µM.

Work on NCCCOc1ccc(C/C(=N/O)C(=O)NCCc2ccccc2)cc1Br yielded a GI50 [1] of 31 µM, a GI50 [2] of 6.2 µM and a GI50 [3] of 30 µM. The GI50 [4] was 27 µM and the GI50 [5] was over 50 µM.

With NCCCOc1c(Br)cc(C/C(=N/O)C(=O)NCCc2c[nH]c3ccccc23)cc1Br the GI50 [1] was 26 µM, the GI50 [2] was 5.8 µM and the GI50 [3] was 27 µM. It also gave a GI50 [4] of 26 µM and a GI50 [5] of 24 µM.

Compound NCCCOc1c(Cl)cc(Cl)cc1C/C(=N/O)C(=O)NCCc1ccc(Cl)cc1 has a GI50 [1] of 7.8 µM, a GI50 [2] of 5.9 µM and a GI50 [3] of 5.4 µM. It also gave a GI50 [4] of 5.5 µM and a GI50 [5] of 5.2 µM.

For NCCCOc1c(Br)cc(Br)cc1C/C(=N/O)C(=O)NCCc1c[nH]c2ccccc12, the GI50 [1] was 31 µM, the GI50 [2] was 5.4 µM and the IC50 [6] was over 50 µM. For the same compound, the GI50 [3] was 7.5 µM, the GI50 [4] was 6 µM and the GI50 [5] was 6.7 µM.

NCCCOc1c(Br)cc(C/C(=N/O)C(=O)NCCc2ccccc2)cc1Br showed a GI50 [1] of 31 µM, a GI50 [2] of 6.4 µM and a GI50 [3] of 29 µM. The GI50 [4] was 31 µM and the GI50 [5] was 27 µM.

NCCCOc1c(Br)cc(Br)cc1C/C(=N/O)C(=O)NCCc1ccccc1 showed a GI50 [1] of 19 µM, a GI50 [2] of 6.3 µM and a GI50 [3] of 19 µM. For the same compound, the GI50 [4] was 5.3 µM and the GI50 [5] was 5.7 µM.

Compound NCCCOc1ccc(C/C(=N/O)C(=O)NCCc2c[nH]c3ccccc23)cc1Br has a GI50 [1] of 32 µM, a GI50 [2] of 7.6 µM and an IC50 [6] of over 50 µM. For the same compound, the GI50 [3] was 26 µM, the GI50 [4] was 30 µM and the GI50 [5] was 25 µM.

Compound COc1ccc(CCNC(=O)/C(Cc2cc(Br)c(OCCCN)c(Br)c2)=N\O)cc1 has a GI50 [1] of 21 µM, a GI50 [2] of 2.8 µM and a GI50 [3] of 24 µM. It also gave a GI50 [4] of 20 µM and a GI50 [5] of 17 µM.

In the case of NCCCOc1c(Br)cc(C/C(=N/O)C(=O)NCCc2ccc(Cl)cc2)cc1Br, the GI50 [1] is reported as 30 µM, the GI50 [2] is reported as 7.8 µM and the GI50 [3] is reported as 29 µM. The GI50 [4] was 31 µM and the GI50 [5] was 27 µM.

C=C/C=C\[C@H](C)[C@H](OC(N)=O)[C@@H](C)[C@H](O)[C@@H](C)C/C(C)=C\[C@H](C)[C@@H](O)[C@@H](C)/C=C\[C@@H](O)C[C@@H]1OC(=O)[C@H](C)[C@@H](O)[C@H]1C [DISERMOLIDE] was tested, and the GI50 [1] was 0.052 µM, the GI50 [2] was 0.0092 µM and the GI50 [3] was 0.0027 µM. The GI50 [4] was 0.028 µM and the GI50 [5] was 0.04 µM.

CCCCCCCCCCCCCC(=O)NCCCOc1c(Br)cc(C/C(=N/O)C(=O)NCCc2c[nH]c(N)n2)cc1Br [LIPOPUREALIN A] gave a GI50 [1] of 30 µM, a GI50 [2] of 9 µM and an IC50 [6] of over 50 µM. It also gave a GI50 [3] of 28 µM, a GI50 [4] of 29 µM and a GI50 [5] of 28 µM.

For CC(C)CCCCCCCCCCCC(=O)NCCCOc1c(Br)cc(C/C(=N/O)C(=O)NCCc2c[nH]c(N)n2)cc1Br [LIPOPUREALIN B], the GI50 [1] was 25 µM, the GI50 [2] was 12 µM and the GI50 [3] was 29 µM. It also gave a GI50 [4] of 30 µM and a GI50 [5] of 28 µM.

CCCCCCCCCCCCCCCC(=O)NCCCOc1c(Br)cc(C/C(=N/O)C(=O)NCCc2c[nH]c(N)n2)cc1Br [LIPOPUREALIN C] gave a GI50 [1] of 32 µM, a GI50 [2] of 9.7 µM and a GI50 [3] of 5.7 µM. For the same compound, the GI50 [4] was 20 µM and the GI50 [5] was 7 µM.

With NCCCOc1c(Br)cc(C/C(=N/O)C(=O)NCCc2c[nH]c(N)n2)cc1Br [PUREALIDIN A] the GI50 [1] was over 50 µM, the GI50 [2] was 4.7 µM and the IC50 [6] was 42 µM. It also gave a GI50 [3] of over 50 µM, a GI50 [4] of over 50 µM and a GI50 [5] of over 50 µM.

Work on COC1=C(Br)[C@@H](O)[C@]2(C=C1Br)CC(C(=O)NCCCOc1c(Br)cc(C/C(=N/O)C(=O)NCCc3c[nH]c(N)n3)cc1Br)=NO2 [PUREALIN] yielded a GI50 [1] of over 50 µM, a GI50 [2] of 3.2 µM and an IC50 [6] of 35 µM. For the same compound, the GI50 [3] was over 50 µM, the GI50 [4] was over 50 µM and the GI50 [5] was over 50 µM.

— ChEMBL document CHEMBL1139012, “Synthesis and biological evaluation of purealin and analogues as cytoplasmic dynein heavy chain inhibitors” (J Med Chem, 2006)
